From patent US20200316038A1, “METHODS AND COMPOSITIONS FOR TREATING UREA CYCLE DISORDERS, IN PARTICULAR OTC DEFICIENCY” (CAMP4 THERAPEUTICS CORPORATION, priority 2017, published 2020)
Read-outs that look alike come from different tables or passages of the source.

B1: Anti mullerian hormone: member of the TGF-B gene family (protein, UniProt P03971 452-560, looked up)
Muellerian-inhibiting factor: SAGATAADGPCALRELSVDLRAERSVLIPETYQANNCQGVCGWPQSDRNPRYGNHVVLLLKMQVRGAALARPPCCVPTAYAGKLLISLSEERISAHHVPNMVATECGCR
B2: Nodal: 13 kDa member of the TGF-B superfamily (protein, UniProt Q96S42 238-347, looked up)
Nodal homolog: HHLPDRSQLCRKVKFQVDFNLIGWGSWIIYPKQYNAYRCEGECPNPVGEEFHPTNHAYIQSLLKRYQPHRVPSTCCAPVKTKPLSMLYVDNGRVLLDHHKDMIVEECGCL

Tests used:
ASS1 = assay: RNA-seq, ASS1 expression in compound-treated primary human hepatocytes; type: cell-based
OTC = assay: RNA-seq, OTC expression in compound-treated primary human hepatocytes; type: cell-based
[1] = test system: multiple urea cycle-related genes; assay: RNA-seq, compounds that modulate multiple urea cycle-related genes; type: cell-based; conditions: primary human hepatocytes; for Up-regulated Genes: urea cycle-related genes significantly increased by the compound
CPS1 = assay: RNA-seq, CPS1 expression in compound-treated primary human hepatocytes; type: cell-based
ARG1 = assay: RNA-seq, ARG1 expression in compound-treated primary human hepatocytes; type: cell-based; conditions: RNA-seq, primary human hepatocytes, compounds that significantly increase ARG1 expression
[2] = RNA-seq, primary human hepatocytes, compounds that significantly increase NAGS expression

Row | Molecule | Fold change (Log 2) vs untreated (ASS1) [Log 2] | NAGS expression, Fold change (Log 2) vs untreated (NAGS) [Log 2] | NAGS expression, Fold change (Log 2) vs untreated (NAGS; [2]) [Log 2] | Fold change (Log 2) vs untreated (OTC) [Log 2] | number of urea cycle genes whose expression was significantly up-regulated [1] | Up-regulated Genes [1] | Fold change (Log 2) vs untreated (CPS1) [Log 2] | ARG1 expression, Fold change (Log 2) vs untreated (ARG1) [Log 2]
1 | O=C1NC(=O)/C(=C/c2cccc(C(F)(F)F)c2)S1 [SMI-4a] | 0.69 | 1.25 | – | – | – | – | – | –
2 | NS(=O)(=O)C#Cc1ccccc1 [Pifithrin-μ] | – | – | 1.18 | 0.79 | three | OTC, NAGS, ARG1 | – | –
3 | C[C@]12C=CC(=O)C=C1CC[C@@H]1[C@@H]2C(=O)C[C@@]2(C)[C@H]1CC[C@]2(O)C(=O)CO [prednisone] | – | – | 1 | – | three | CPS1, NAGS, ARG1 | 2.17 | 1.59
4 | HGF/SF: Hepatocyte Growth Factor, scatter factor; c-Met activator | – | 0.56 | – | 0.56 | four | NAGS, CPS1, OTC, ARG1 | 2.02 | 1.51
5 | FGF: Fibroblast Growth Factor-acidic (FGF-1); FGFR activator | – | – | – | 0.56 | three | CPS1, OTC, ARG1 | 1.72 | 1.24
6 | Activin | – | 0.69 | – | 0.94 | four | NAGS, CPS1, OTC, ARG1 | 2.23 | 2.01
7 | EGF: Epidermal Growth Factor; Pan-ErbB activator | – | – | – | 0.64 | three | CPS1, OTC, ARG1 | 1.93 | 1.46
8 | B1 | – | – | – | 0.81 | three | CPS1, OTC, ARG1 | 2.35 | 2.06
9 | B2 | – | – | – | 0.68 | three | CPS1, OTC, ARG1 | 2.44 | 2.05
